Here are results for 14 molecules from patent publication US10889579B2, “Thiazine derivatives as β-secretase inhibitors and methods of use” (AMGEN INC., priority 2016, dated 2021).

Assay [1] concerns the target T1, BACE1 (Homo sapiens (Human), UniProt P56817). Briefly: In vitro BACE1 cell-based assay (Aβ40 in conditioned medium, HTRF). As to conditions: Aβ40 in conditioned medium of cells stably expressing APP, 24 h. On the procedure:
In Vitro BACE1 Cell-Based Assay
The cell-based assay measures inhibition or reduction of Aβ40 in conditioned medium of test compound treated cells expressing amyloid precursor protein. Cells stably expressing Amyloid Precursor Protein (APP) were plated at a density of 45K cells/well in 384 well plates (Corning/BioCoat 354663). The test compounds were then added to cells in 22-point dose response concentrations with the starting concentration being 62.5 μM. The compounds were diluted from stock solutions in DMSO and the final DMSO concentration of the test compounds on cells was 0.625%. The cells were cultivated overnight at 37° C. and 5% CO2 in DMEM supplemented with 10% FBS. After 24 h of incubation with the test compounds, the conditioned media was collected and the Aβ40 levels were determined using HTRF (Homogeneous Time Resolved Fluorescence). The IC50 of the compound was calculated from the percent of control or percent inhibition of Aβ 40 as a function of the concentration of the test compound.
The HTRF to detect Aβ40 was performed in 384 well plates (Costar 3658). The antibody pair that were used to detect Aβ 40 from cell supernatants were ConfAb40 antibody (Amgen in-house) and biotinylated 6E10 (BIOLEGEND). As an alternative to ConfAb40, a commercially available antibody, Anti-beta Amyloid 1-40 antibody [BDI350] from Abcam, Cambridge, Mass. 02139-1517 (Product code: ab20068), may be used in this assay. The concentrations were 0.35 μg/mL of ConfAb40 antibody and 1.33 μg/mL of 6E10-biotinylated antibody, as well as 4.5 μg/mL of Streptavidin Allophycocyanin Conjugate (ThermoFisher Scientific) in HTRF Buffer (1M Hepes pH 7.5, 1M NaCL, 1% BSA, 0.5% Tween 20).
The conditioned media was incubated with above antibodies and Streptavidin Allophycocyanin Conjugate for 30-60 minutes at 23° C. The final readout was performed on Envision from PerkinElmer.
A general note: Time-resolved FRET reads energy transfer from a long-lived donor to a nearby acceptor.
Target sequence in this assay (P56817 46-501, species assumed): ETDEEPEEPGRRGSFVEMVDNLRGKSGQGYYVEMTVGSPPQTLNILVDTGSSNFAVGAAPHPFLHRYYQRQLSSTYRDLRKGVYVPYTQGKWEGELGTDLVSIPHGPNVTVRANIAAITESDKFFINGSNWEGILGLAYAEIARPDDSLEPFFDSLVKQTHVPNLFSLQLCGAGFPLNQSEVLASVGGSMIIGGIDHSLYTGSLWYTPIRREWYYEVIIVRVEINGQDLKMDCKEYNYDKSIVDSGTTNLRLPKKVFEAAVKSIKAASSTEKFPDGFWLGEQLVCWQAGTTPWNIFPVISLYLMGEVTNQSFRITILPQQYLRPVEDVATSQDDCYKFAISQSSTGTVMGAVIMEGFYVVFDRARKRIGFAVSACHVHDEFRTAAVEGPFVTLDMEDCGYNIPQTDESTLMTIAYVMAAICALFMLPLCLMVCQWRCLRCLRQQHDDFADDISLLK

Assay [2] concerns the target human recombinant BACE2 (Homo sapiens (Human), UniProt Q9Y5Z0). Briefly: In vitro enzymatic BACE2 FRET assay. It counts as biochemical. The following applies: pH 4.5, 1 h pre-incubation, read-out: BACE2 Enzyme IC50. On the procedure:
(§1) In Vitro Enzymatic BACE1 and BACE2 FRET (Fluorescence Resonance Energy Transfer) Assays
(§2) The cDNAs for both human recombinant BACE1 and 2 with C-terminal 6-His Tags were cloned into transient protein expression vectors, which were subsequently transfected into mammalian cell lines. These recombinant proteins were further purified using Ni-NTA affinity chromatography (Qiagen). The assay buffer used in these screens was 0.05 M acetate, pH 4.5, 8% DMSO final, 100 μM genapol (which is a nonionic detergent, below its Critical Micelle Concentration). The β-secretase enzyme (0.02 nM for BACE1 and 0.64 nM for BACE2), which was pre-incubated for one hour with the test compound, typically in about luL of DMSO according to a serial dilution, was added thereto. The assay was effectively started by the addition of FRET substrate (50 nM) and the combination was incubated for one hour. The FRET assay was terminated by the addition of tris buffer, which raised the pH to neutrality, and the fluorescence was determined. The FRET substrate was a peptide with commercially available fluorophore and quencher, on opposite sides of the BACE cleavage site. The specific FRET substrate used in this assay was made by Amgen in-house. Commercially available FRET substrates, for example, the FRET substrate offered with the BACE1 FRET Assay Kit sold by ThermoFisher Scientific (Catalog Number P2985), may be used in this assay with the appropriate modifications, which are within the purview of the ability of a person with ordinary skill in the art. Proteolytic cleavage of the FRET substrate released quenching of fluorescence (excitation 488 nm and emission 590 nm).

Assay [3] concerns the target T1, BACE1. The experiment in a line: In vitro enzymatic BACE1 FRET assay. Type of assay: biochemical. As to conditions: pH 4.5, 1 h pre-incubation, read-out: BACE1 Enzyme IC50. On the procedure: as §1, §2
Target sequence in this assay (P56817 46-501): as the sequence (P56817 46-501, species assumed) above
Assay [4] has as its target Recombinant CatD (Homo sapiens (Human), UniProt P07339). The experiment in a line: In vitro enzymatic Cathepsin D (CatD) FRET assay. It counts as biochemical. The following applies: pH 3.5, 1 h pre-incubation, read-out: Cat D Enzyme IC50. On the procedure: In Vitro Enzymatic Cathepsin D (CatD) FRET Assay Recombinant CatD was expressed in CHO cells. The assay buffer for CatD was 0.05 M citrate pH 3.5, 10% DMSO final, 5 mM CHAPS. The CatD enzyme (9 nM) was pre-incubated for one hour with inhibitors, typically in about luL of DMSO according to a serial dilution, is added thereto. The assays was effectively started by the addition of different FRET substrates (20 nM for CatD) and the combination was incubated for one hour. The FRET assay was terminated with by addition of tris buffer, which raises the pH to neutrality, and the fluorescence was determined. The FRET substrate was a peptide with commercially available fluorophore and quencher, on opposite sides of the CatD cleavage site. The CatD substrate peptide sequence was based on sequence #1 of Table 1 from Gulnik et al., FEBS Lett. 413(2):379-384 (1997). Proteolytic cleavage of the FRET substrate released quenching of fluorescence (CatD excitation 500 nm and emission 580 nm). The in vitro CatD FRET assay data for each of the Examples is provided in Table 2, conducted by the first procedure described above. […] Thus, with this surprising selectivity profile, the compounds provided herein are believed to minimize, reduce or completely eliminate any risk of retinal atrophy and abnormal development of the eye and of the retinal pigmented epithelium as it relates to the normal function and activity of CatD.

Chain of Recombinant CatD (P07339 65-412): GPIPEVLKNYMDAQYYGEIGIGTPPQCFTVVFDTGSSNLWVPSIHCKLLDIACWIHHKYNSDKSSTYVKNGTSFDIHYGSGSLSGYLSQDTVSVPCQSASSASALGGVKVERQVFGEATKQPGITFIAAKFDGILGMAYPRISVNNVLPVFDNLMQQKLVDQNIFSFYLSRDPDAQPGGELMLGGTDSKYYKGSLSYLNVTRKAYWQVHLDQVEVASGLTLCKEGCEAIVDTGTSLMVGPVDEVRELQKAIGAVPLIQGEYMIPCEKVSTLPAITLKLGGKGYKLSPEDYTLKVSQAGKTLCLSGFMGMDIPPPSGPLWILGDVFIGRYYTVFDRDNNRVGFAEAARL
Chain of human recombinant BACE2 (Q9Y5Z0 63-518): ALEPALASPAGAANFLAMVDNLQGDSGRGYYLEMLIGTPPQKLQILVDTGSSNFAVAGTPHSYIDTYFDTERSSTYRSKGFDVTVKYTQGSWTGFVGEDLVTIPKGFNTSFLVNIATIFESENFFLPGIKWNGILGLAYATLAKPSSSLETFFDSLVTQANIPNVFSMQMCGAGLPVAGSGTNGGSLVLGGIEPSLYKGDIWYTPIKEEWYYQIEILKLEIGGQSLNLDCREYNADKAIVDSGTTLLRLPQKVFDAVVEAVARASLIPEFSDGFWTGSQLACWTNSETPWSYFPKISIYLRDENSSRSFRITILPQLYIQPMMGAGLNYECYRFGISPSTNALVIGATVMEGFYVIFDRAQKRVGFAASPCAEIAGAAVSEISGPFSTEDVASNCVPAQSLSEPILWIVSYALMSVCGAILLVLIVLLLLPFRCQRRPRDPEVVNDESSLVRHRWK

For the molecule `COC(=O)[C@@]1(C)C[C@@](C)(c2cc(/C=C(\F)c3ccc(C#N)cn3)ccc2F)N=C(N)S1` [Example 108, (4S,6R)-methyl 2-amino-4-(5-((Z)-2-(5-cyanopyridin-2-yl)-2-fluorovinyl)-2-fluorophenyl)-4,6-dimethyl-5,6-dihydro-4H-1,3-thiazine-6-carboxylate], the IC50 in assay [1] turned out to be 44 nM; in assay [2], 231 nM; in assay [3], 16 nM; in assay [4], 386000 nM.
The matching figures for `C[C@@]1(C(=O)N2CCOCC2)C[C@@](C)(c2cc(/C=C(\F)c3ccc(C#N)cn3)ccc2F)N=C(N)S1` [Example 110, 6-((Z)-2-(3-((4S,6S)-2-amino-4,6-dimethyl-6-(morpholine-4-carbonyl)-5,6-dihydro-4H-1,3-thiazin-4-yl)-4-fluorophenyl)-1-fluorovinyl)nicotinonitrile]: 2 nM, 130 nM, 4 nM and 250000 nM.
The matching figures for `CNC(=O)[C@]1(C)C[C@@](C)(c2cc(/C=C(\F)c3ccc(C#N)cn3)ccc2F)N=C(N)S1` [Example 116, (4S,6S)-2-amino-4-(5-((Z)-2-(5-cyanopyridin-2-yl)-2-fluorovinyl)-2-fluorophenyl)-N,4,6-trimethyl-5,6-dihydro-4H-1,3-thiazine-6-carboxamide]: 10 nM, 560 nM, 25 nM and 68600 nM.
On to `COC(=O)[C@]1(C)C[C@@](C)(c2cc(/C=C(\F)c3ccc(C#N)cn3)ccc2F)N=C(N)S1` [Example 109, (4S,6S)-methyl 2-amino-4-(5-((Z)-2-(5-cyanopyridin-2-yl)-2-fluorovinyl)-2-fluorophenyl)-4,6-dimethyl-5,6-dihydro-4H-1,3-thiazine-6-carboxylate], for which the IC50 in assay [1] worked out at 24 nM; in assay [2], 281 nM; in assay [3] it was 16 nM; in assay [4] it was 95600 nM.
For `C#CCOc1cnc(/C(F)=C/c2ccc(F)c([C@]3(C)C[C@@](C)(C(=O)NCC(F)F)SC(N)=N3)c2)cn1` [Example 115, (4S,6S)-2-amino-N-(2,2-difluoroethyl)-4-(2-fluoro-5-((Z)-2-fluoro-2-(5-(prop-2-yn-1-yloxy)pyrazin-2-yl)vinyl)phenyl)-4,6-dimethyl-5,6-dihydro-4H-1,3-thiazine-6-carboxamide], the IC50 in assay [1] was 18 nM; in assay [2] it was 760 nM; in assay [3], 24 nM; in assay [4], 40200 nM.
In the same order, the values of `C#CCOc1cnc(/C(F)=C/c2ccc(F)c([C@]3(C)C[C@@](C)(C(=O)N4CCOCC4)SC(N)=N3)c2)cn1` [Example 114, ((4S,6S)-2-amino-4-(2-fluoro-5-((Z)-2-fluoro-2-(5-(prop-2-yn-1-yloxy)pyrazin-2-yl)vinyl)phenyl)-4,6-dimethyl-5,6-dihydro-4H-1,3-thiazin-6-yl)(morpholino)methanone] are 2 nM, 358 nM, 6 nM and 21800 nM.
In the case of `C#CCOc1cnc(/C(F)=C/c2ccc(F)c([C@]3(C)C[C@@](C)(C(=O)NC)SC(N)=N3)c2)cn1` [Example 113, (4S,6S)-2-amino-4-(2-fluoro-5-((Z)-2-fluoro-2-(5-(2-propyn-1-yloxy)-2-pyrazinyl)ethenyl)phenyl)-N,4,6-trimethyl-5,6-dihydro-4H-1,3-thiazine-6-carboxamide], the IC50 came out at 10 nM in assay [1], 835 nM in assay [2], 22 nM in assay [3] and 178000 nM in assay [4].
In the same order, the values of `C[C@@]1(c2cc(/C=C(\F)c3ccc(Cl)cn3)ccc2F)CCSC(N)=N1` [Example 102, (S,Z)-4-(5-(2-(5-chloropyridin-2-yl)-2-fluorovinyl)-2-fluorophenyl)-4-methyl-5,6-dihydro-4H-1,3-thiazin-2-amine] are 148 nM, 64 nM, 124 nM and 211000 nM.
On to `C[C@@]1(c2cc(/C=C(\F)c3ccc(C#N)cn3)ccc2F)CCSC(N)=N1` [Example 103, (S,Z)-6-(2-(3-(2-amino-4-methyl-5,6-dihydro-4H-1,3-thiazin-4-yl)-4-fluorophenyl)-1-fluorovinyl)nicotinonitrile], for which the IC50 in assay [1] was determined as 15 nM; in assay [2], 482 nM; in assay [3], 74 nM; in assay [4], 186000 nM.
`C[C@@]1(c2cc(/C=C(\F)c3ccc(C#N)cn3)ccc2F)C=CSC(N)=N1` [Example 101, (S,Z)-6-(2-(3-(2-amino-4-methyl-4H-1,3-thiazin-4-yl)-4-fluorophenyl)-1-fluorovinyl)nicotinonitrile]: the IC50 in assay [1] worked out at 49 nM; in assay [2] it was 601 nM; in assay [3], 98 nM; in assay [4], 52000 nM.
As to `C[C@@]1(c2cc(/C=C(\F)c3ccc(Cl)cn3)ccc2F)C=CSC(N)=N1` [Example 100, (S,Z)-4-(5-(2-(5-chloropyridin-2-yl)-2-fluorovinyl)-2-fluorophenyl)-4-methyl-4H-1,3-thiazin-2-amine], the IC50 is 357 nM in assay [1], 191 nM in assay [2], 220 nM in assay [3] and 36900 nM in assay [4].
Turning to `C#CCOc1cnc(/C(F)=C/c2ccc(F)c([C@]3(C)C[C@](C)(C(=O)NC)SC(N)=N3)c2)cn1` [Example 112, (4S,6R)-2-amino-4-(2-fluoro-5-((Z)-2-fluoro-2-(5-(2-propyn-1-yloxy)-2-pyrazinyl)ethenyl)phenyl)-N,4,6-trimethyl-5,6-dihydro-4H-1,3-thiazine-6-carboxamide], the IC50 in assay [1] amounted to 11 nM; in assay [2], 1300 nM; in assay [3] it was 37 nM; in assay [4] it was 79900 nM.
Turning to `COC(=O)[C@H]1C[C@@](C)(c2cc(/C=C(\F)c3ccc(Cl)cn3)ccc2F)N=C(N)S1` (single isomer, unassigned) [Example 104], the IC50 was 468 nM in assay [1], 185 nM in assay [2], 212 nM in assay [3] and 133000 nM in assay [4].
Consider `COC(=O)[C@@H]1C[C@@](C)(c2cc(/C=C(\F)c3ccc(Cl)cn3)ccc2F)N=C(N)S1` (single isomer, unassigned) [Example 105], for which the IC50 in assay [1] was determined as 377 nM; in assay [2] it was 49 nM; in assay [3] it was 45 nM; in assay [4], 73700 nM.

What is called IC50 is the midpoint of a concentration-inhibition curve.
